Activity calls are given as the source filed them.
How the values were obtained:
[1] = target: T1, Heat shock factor protein 1 (Mus musculus, UniProt P38532); assay: enhancement of HSF1-driven luciferase signal – cell-based, NIH3T3, luminescence, dose retest, confirmation (AID 435004); type: functional;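 further: stress induced by proteasome inhibitor MG132 added 30 min after compound; luciferase reporter driven by HSF1 response element in NIH3T3 cells; actives raise luminescence as potentiators of the MG132 stress response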
T1 sequence (P38532 whole entry): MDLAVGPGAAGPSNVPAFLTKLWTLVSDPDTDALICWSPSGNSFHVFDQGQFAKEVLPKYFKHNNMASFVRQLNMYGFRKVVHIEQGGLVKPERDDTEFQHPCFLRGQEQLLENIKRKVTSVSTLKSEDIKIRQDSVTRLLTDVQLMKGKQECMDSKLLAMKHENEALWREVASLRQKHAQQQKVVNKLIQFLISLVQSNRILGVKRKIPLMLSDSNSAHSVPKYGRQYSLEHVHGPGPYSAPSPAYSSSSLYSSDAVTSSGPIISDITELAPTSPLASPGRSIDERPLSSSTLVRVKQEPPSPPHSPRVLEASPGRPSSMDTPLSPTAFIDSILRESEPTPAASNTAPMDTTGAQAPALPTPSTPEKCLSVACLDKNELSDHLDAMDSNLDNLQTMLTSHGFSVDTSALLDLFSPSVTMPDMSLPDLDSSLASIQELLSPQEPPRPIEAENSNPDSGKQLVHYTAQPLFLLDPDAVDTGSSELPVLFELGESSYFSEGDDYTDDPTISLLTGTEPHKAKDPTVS

[2] = target: DNA damage-inducible transcript 3 protein (Mus musculus, UniProt P35639); type: functional, Cricetulus griseus
Coagulation factor XII = target: T2, Coagulation factor XII (Homo sapiens, UniProt P00748); type: functional;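 further: activated factor XIIa alpha cleaving a fluorogenic AMC peptide substrate; inhibitor potency from loss of enzyme activity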
T2 sequence (P00748 whole entry): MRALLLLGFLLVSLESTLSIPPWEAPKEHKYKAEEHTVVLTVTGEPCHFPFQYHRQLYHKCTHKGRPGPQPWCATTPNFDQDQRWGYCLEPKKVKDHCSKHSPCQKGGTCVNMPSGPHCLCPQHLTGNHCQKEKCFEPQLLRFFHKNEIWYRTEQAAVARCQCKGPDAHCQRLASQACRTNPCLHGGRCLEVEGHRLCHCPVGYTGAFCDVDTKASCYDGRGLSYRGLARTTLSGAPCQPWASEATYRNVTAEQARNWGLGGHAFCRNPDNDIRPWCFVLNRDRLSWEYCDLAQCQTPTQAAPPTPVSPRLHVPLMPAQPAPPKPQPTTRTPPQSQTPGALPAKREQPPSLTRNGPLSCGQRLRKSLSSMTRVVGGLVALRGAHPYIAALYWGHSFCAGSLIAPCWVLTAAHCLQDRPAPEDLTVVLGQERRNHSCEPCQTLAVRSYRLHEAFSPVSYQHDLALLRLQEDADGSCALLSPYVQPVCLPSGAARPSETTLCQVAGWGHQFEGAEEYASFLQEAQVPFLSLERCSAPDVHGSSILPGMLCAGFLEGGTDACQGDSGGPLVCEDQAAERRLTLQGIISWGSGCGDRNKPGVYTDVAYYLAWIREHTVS

Cysteine protease ATG4B = target: T3, Cysteine protease ATG4B (Homo sapiens, UniProt Q9Y4P1); type: functional;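 further: Fluorescence-based dose-response confirmation assay measuring inhibition of ATG4B activity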
T3 sequence (Q9Y4P1 whole entry): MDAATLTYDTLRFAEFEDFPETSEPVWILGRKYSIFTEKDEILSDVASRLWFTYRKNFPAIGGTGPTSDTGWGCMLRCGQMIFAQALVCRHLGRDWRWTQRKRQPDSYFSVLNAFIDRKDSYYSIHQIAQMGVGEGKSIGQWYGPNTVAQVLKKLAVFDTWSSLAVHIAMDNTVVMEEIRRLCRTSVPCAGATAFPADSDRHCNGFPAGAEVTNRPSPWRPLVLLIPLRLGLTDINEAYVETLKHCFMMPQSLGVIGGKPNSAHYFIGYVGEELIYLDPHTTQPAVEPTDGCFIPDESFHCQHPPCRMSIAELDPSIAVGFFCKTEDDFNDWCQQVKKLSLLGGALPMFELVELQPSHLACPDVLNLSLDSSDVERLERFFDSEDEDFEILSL

Phospholipase A2 = Phospholipase A2 (Homo sapiens, UniProt P04054); type: functional;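 further: confirmatory dose-response counterscreen on phospholipase A2, testing hits that came from an ultra-high-throughput screen for ATG4B inhibitors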
[3] = target: T4, Replicative DNA helicase DnaB (Mycobacterium tuberculosis, UniProt P9WMR3); assay: DnaB intein splicing inhibitors, dose response, biochemical, cell-free fluorescence (AID 449749); type: functional
T4 sequence (P9WMR3 whole entry): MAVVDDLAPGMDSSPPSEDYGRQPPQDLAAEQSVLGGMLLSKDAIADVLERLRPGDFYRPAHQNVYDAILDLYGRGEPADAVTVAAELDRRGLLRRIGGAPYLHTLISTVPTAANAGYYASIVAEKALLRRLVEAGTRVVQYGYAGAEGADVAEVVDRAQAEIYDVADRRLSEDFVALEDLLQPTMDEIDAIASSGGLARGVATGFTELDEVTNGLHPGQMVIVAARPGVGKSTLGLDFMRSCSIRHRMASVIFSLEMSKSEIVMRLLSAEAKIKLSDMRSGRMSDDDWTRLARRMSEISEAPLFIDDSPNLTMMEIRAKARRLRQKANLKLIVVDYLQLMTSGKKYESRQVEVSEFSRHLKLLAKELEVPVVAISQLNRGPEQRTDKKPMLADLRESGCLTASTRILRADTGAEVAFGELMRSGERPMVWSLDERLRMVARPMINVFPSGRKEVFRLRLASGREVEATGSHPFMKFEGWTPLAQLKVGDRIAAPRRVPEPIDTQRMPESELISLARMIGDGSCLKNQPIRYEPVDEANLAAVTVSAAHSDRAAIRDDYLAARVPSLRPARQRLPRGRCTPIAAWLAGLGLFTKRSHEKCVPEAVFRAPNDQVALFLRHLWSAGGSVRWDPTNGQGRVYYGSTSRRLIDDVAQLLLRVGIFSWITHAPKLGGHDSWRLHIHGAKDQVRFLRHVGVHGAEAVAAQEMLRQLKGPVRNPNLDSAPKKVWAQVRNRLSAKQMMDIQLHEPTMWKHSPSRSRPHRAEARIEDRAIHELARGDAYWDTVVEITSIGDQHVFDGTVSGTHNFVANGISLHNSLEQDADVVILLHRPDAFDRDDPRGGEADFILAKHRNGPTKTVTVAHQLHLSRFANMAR

Protein RecA = target: T5, Protein RecA (Mycobacterium tuberculosis, UniProt P9WHJ3); assay: Fluorescence Cell-Free Homogeneous Dose Retest to Identify Inhibitors of RecA-Intein Splicing Activity. [Related pubchem assays (depositor defined):AID2097, AID2223, AID489010, AID492950]; type: functional
T5 sequence (P9WHJ3 whole entry): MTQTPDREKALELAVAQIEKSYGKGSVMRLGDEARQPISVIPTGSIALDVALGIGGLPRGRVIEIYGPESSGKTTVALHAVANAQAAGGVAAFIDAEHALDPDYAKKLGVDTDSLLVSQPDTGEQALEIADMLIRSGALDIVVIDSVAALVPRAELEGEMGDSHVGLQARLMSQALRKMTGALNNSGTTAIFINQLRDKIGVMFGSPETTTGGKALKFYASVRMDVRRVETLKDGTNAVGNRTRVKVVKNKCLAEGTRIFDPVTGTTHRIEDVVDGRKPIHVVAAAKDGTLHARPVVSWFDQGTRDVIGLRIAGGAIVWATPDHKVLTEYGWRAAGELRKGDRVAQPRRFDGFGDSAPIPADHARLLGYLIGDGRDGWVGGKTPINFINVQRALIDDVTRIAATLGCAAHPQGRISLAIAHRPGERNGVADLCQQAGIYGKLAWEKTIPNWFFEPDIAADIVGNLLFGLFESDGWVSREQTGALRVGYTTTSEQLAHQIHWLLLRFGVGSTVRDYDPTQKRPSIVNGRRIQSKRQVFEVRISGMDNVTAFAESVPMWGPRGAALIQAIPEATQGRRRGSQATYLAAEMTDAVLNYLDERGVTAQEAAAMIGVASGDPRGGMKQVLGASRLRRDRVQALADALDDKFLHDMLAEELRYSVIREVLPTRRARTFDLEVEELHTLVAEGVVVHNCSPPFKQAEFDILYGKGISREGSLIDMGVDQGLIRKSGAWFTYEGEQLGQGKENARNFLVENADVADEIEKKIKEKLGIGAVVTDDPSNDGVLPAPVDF

[4] = target: T6, Probable nicotinate-nucleotide adenylyltransferase (Staphylococcus aureus (strain N315), UniProt P65502); type: functional, Staphylococcus aureus subsp. aureus N315;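 on IC50 Mean: confirmatory dose-response retesting of NadD inhibitor hits first found in an ultra-high-throughput screen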
[5] = target: T6, Probable nicotinate-nucleotide adenylyltransferase; type: functional, Staphylococcus aureus subsp. aureus N315; details: read-out: IC50_Mean
BJ [6] = assay: BJ-TERT fibroblast viability loss – cell-based, RAS-independent, luminescence, dose response (AID 1933); type: functional; details: Homo sapiens
BJ [7] = assay: cells; type: functional, cell-based; details: Homo sapiens
[8] = Trypanosoma cruzi growth suppression in host cells – NIH3T3 host cells, beta-gal luminescence, confirmation (AID 2044); type: functional, cell-based;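 further: intracellular parasites grown in NIH/3T3 mouse fibroblasts as host cells; luminescent beta-galactosidase reporter signal from transgenic T. cruzi replicating inside host cells; inhibitors lower the luminescence signal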
[9] = microbe, parasite or virus in culture; type: functional; details: Mycobacterium tuberculosis
[10] = viability of PTEN-deleted HCT116 cells – cell-based, HCT116 PTEN knockout, dose response (AID 1047); type: functional;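 further: HCT116 colon tumor cells with PTEN knocked out; cells exposed to compound for 60 hours before readout; potency for loss of cell viability measured by luminescence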
[11] = NIH3T3 cell viability loss – ATP luminescence, mouse fibroblasts, counter-screen, dose response (AID 2010); type: functional, cell-based;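 further: cells exposed to compound for about 90 hours before reading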
[12] = viability of HCT116 lacking mutant beta-catenin – cell-based, human colon tumor, dose response (AID 1045); type: functional;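 further: HCT116 colon tumor cells with beta catenin knocked out; cells exposed to compound for 60 hours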
BJ [13] = assay: BJ-TERT-LT-ST fibroblast viability loss – cell-based, RAS-independent, luminescence, dose response (AID 1935); type: functional; details: Homo sapiens;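 further: BJ fibroblasts immortalized with TERT plus LT and ST oncogenes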
[14] = DRD fibroblast viability loss – cell-based, non-viral oncogenic, luminescence, dose response (AID 1934); type: functional; details: Homo sapiens
[15] = target: T7, Mannose-6-phosphate isomerase (Homo sapiens, UniProt P34949); assay: MPI inhibition at elevated mannose 6-phosphate – biochemical, fluorescence intensity, high mannose 6-phosphate, primary screen (AID 1220)
T7 sequence (P34949 whole entry): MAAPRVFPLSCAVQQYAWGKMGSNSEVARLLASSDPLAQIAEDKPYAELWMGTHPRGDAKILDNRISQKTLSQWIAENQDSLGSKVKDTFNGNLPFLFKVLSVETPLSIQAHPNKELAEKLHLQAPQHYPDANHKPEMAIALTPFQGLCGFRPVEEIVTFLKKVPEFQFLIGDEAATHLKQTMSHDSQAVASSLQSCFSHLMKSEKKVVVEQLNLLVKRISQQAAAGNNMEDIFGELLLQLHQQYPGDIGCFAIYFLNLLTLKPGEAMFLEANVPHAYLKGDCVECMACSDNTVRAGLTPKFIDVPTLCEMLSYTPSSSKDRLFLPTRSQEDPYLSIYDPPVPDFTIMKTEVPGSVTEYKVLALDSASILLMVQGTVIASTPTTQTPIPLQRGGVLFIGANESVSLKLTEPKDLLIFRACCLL

[16] = THP-1 cell cytotoxicity, dose response, cytotoxicity control for non-replicating M. tuberculosis project (AID 489025); type: functional
[17] = HepG2 cell cytotoxicity, dose response, cytotoxicity control for non-replicating M. tuberculosis project (AID 489018); type: functional; details: Mycobacterium tuberculosis
[18] = Vero E6 cell cytotoxicity, dose response, cytotoxicity control for non-replicating M. tuberculosis project, secondary assay (AID 492998); type: functional, VeroE6; details: Vero C1008
cells = type: functional
INS1 = assay: INS-1E survival protection against cytokine death – cell-based, luminescence, retest, dose response (AID 449756); type: functional; details: Rattus norvegicus;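 further: cell death triggered by IL-1 beta plus TNF-alpha plus IFN-gamma mixture; protective hits raise ATP signal compared with cytokine alone wells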
[19] = target: T8, Tyrosyl-DNA phosphodiesterase 2 (Homo sapiens, UniProt O95551); assay: potency against TDP2 phosphodiesterase activity – biochemical, epi absorbance, IC50, dose response (AID 743297)
T8 sequence (O95551 whole entry): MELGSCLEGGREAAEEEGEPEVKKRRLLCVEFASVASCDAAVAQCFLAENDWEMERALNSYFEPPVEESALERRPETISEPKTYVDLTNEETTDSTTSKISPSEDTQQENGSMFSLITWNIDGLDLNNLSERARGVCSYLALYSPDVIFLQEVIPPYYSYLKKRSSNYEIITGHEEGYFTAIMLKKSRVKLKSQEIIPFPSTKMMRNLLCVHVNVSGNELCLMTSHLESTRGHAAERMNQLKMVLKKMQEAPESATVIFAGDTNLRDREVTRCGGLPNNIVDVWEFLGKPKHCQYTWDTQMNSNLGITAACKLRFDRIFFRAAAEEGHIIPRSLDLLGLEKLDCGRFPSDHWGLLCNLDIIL

DNA damage-inducible transcript 3 protein, sequence (P35639 whole entry): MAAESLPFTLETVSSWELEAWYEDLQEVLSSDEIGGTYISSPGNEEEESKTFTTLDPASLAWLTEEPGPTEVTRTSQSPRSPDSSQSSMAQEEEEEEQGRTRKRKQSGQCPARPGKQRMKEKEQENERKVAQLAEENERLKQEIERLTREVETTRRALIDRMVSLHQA
T6 sequence (P65502 whole entry): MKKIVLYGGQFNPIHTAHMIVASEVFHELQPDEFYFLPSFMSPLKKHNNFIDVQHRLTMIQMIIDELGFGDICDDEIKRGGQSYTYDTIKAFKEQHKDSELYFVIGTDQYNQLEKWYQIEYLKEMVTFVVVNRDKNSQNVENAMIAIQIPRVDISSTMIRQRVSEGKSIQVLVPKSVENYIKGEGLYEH
Phospholipase A2, sequence (P04054 whole entry): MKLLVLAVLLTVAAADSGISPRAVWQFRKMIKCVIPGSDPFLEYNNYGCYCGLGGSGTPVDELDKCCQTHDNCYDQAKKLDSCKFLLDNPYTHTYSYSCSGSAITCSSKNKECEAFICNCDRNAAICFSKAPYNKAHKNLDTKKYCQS

SMILES: CCn1cc([N+](=O)[O-])c(C(=O)N2N=C(c3ccc(Cl)c(Cl)c3)CC2c2ccccc2O)n1 (stereo unspecified)
- EC50 [1]: > 260 µM (inactive)
- Absolute IC50 (CHOP) [2]: 10 µM

SMILES: CCC1SC(CC)C(=O)N(CC(=O)NC2CCCCC2)C1=O (stereo unspecified)
- IC50 (Coagulation factor XII): > 50 µM (inactive)

SMILES: CN(C)c1ccc(-c2nnn(Cc3ccccc3Br)n2)cc1
- IC50 (Cysteine protease ATG4B): 13.2 µM (active)
- IC50 (Phospholipase A2): 7.95 µM (active)

SMILES: CC(=O)c1ccc(N2CCN(S(=O)(=O)c3cccc(S(=O)(=O)N4CCOCC4)c3)CC2)cc1
- IC50 (Coagulation factor XII): > 50 µM (inactive)

SMILES: CCOc1ccc(N2C(=O)/C(=C\c3ccc(O)c(OC)c3)S(=O)(=O)C2c2cccc([N+](=O)[O-])c2)cc1 (stereo unspecified)
- EC50 [1]: 8.52 µM (active)
- Absolute IC50 (CHOP) [2]: 10 µM
- AC50 [3]: 2.96 µM (active)
- EC50 (Protein RecA): 3.74 µM (active)
- IC50 [4]: 9.57 µM (active)
- IC50 [5]: 35.9 µM (active)

SMILES: O=C1OC(Nc2ncccn2)c2ccccc21 (stereo unspecified)
- IC50 (Coagulation factor XII): > 50 µM (inactive)

SMILES: CCCNC1=C(N(C(C)=O)c2cccc(F)c2)C(=O)c2ccccc2C1=O
- EC50 (BJ [6]): 6.47 µM (inconclusive)
- EC50 (BJ [7]): 5.96 µM (active)
- EC50 [8]: 1.23 µM (active)
- CC50 [9]: 31 µM (active)
- EC50 [10]: 1.14 µM (active)
- EC50 [11]: 10.3 µM (active)
- EC50 [12]: 979 nM (active)
- EC50 (BJ [13]): 6.6 µM (active)
- EC50 [14]: 6.47 µM (active)
- IC50 [15]: > 50 µM (not active)
- CC50 [16]: 1.47 µM (active)
- CC50 [17]: 8.6 µM (active)
- CC50 [18]: 17.7 µM (active)
- IC50 (cells): 20.8 µM (active)
- AC50 [3]: 9.44 µM (active)
- EC50 (Protein RecA): 2.06 µM (active)
- AC50 (INS1): 1.03 µM (active)
- IC50 [19]: > 4.75 µM (active)

— ChEMBL document CHEMBL1201862, “PubChem BioAssay data set” (2004)
